Data taken from ChEMBL document CHEMBL1133949, “Development of C-20 modified betulinic acid derivatives as antitumor agents” (Bioorg Med Chem Lett, 2001).

Experiments:
SK-MEL-2 [1] = test: Cytotoxicity of compound against SK-MEL-2 using SRB assay; assay type: functional, cell-based, Homo sapiens
PC-3 = test: Cytotoxicity of compound against human prostate adenocarcinoma (PC3) using SRB assay; assay type: functional, cell-based, Prostate gland
HCT-116 = test: Cytotoxicity of compound against human colon carcinoma (HCT116) using MTT assay; assay type: functional
M14 = test: Cytotoxicity of compound against human melanoma cell lines (M14-MEL) using MTT assay; assay type: functional
SK-MEL-2 [2] = test: Cytotoxicity of compound against human melanoma cell lines (SK-MEL-2) using MTT assay; assay type: functional
UACC-257 = test: Cytotoxicity of compound against human melanoma cell lines (UACC-257) using MTT assay; assay type: functional

Compound	EC50 (SK-MEL-2 [1])	EC50 (PC-3)	GI50 (HCT-116)	GI50 (M14)	GI50 (SK-MEL-2 [2])	GI50 (UACC-257)
CC(C)[C@@H]1CC[C@]2(C(=O)O)CC[C@]3(C)[C@H](CC[C@@H]4[C@@]5(C)CC/C(=N\O)C(C)(C)[C@@H]5CC[C@]43C)[C@@H]12	> 3.4 µM	> 3 µM				
CC(C)[C@@H]1CC[C@]2(C(=O)O)CC[C@]3(C)[C@H](CC[C@@H]4[C@@]5(C)CCC(=O)C(C)(C)[C@@H]5CC[C@]43C)[C@@H]12 [DIHYDROBETULONIC ACID]	> 1.6 µM	> 1.3 µM				
CC(O)[C@@H]1CC[C@]2(C(=O)O)CC[C@]3(C)[C@H](CC[C@@H]4[C@@]5(C)CC[C@H](O)C(C)(C)[C@@H]5CC[C@]43C)[C@@H]12 (stereo not given in full)	> 50 µM	> 50 µM	> 50 µM	> 50 µM	> 50 µM	> 50 µM
C=C(CNOC)[C@@H]1CC[C@]2(C(=O)O)CC[C@]3(C)[C@H](CC[C@@H]4[C@@]5(C)CC[C@H](O)C(C)(C)[C@@H]5CC[C@]43C)[C@@H]12	> 50 µM	> 50 µM				
C=C(C)[C@@H]1CC[C@]2(C(=O)O)CC[C@]3(C)[C@H](CC[C@@H]4[C@@]5(C)CC[C@H](OC(C)=O)C(C)(C)[C@@H]5CC[C@]43C)[C@@H]12	> 6.9 µM	> 7.2 µM	> 11.3 µM	> 6.4 µM	> 3.9 µM	> 4.5 µM
CO/N=C(/C)[C@@H]1CC[C@]2(C(=O)O)CC[C@]3(C)[C@H](CC[C@@H]4[C@@]5(C)CC[C@H](O)C(C)(C)[C@@H]5CC[C@]43C)[C@@H]12	> 50 µM	> 50 µM	> 50 µM	> 50 µM	> 50 µM	> 50 µM
C=C(C)[C@@H]1CC[C@]2(C(=O)O)CC[C@]3(C)[C@H](CC[C@@H]4[C@@]5(C)CC[C@H](O)C(C)(C)[C@@H]5CC[C@]43C)[C@@H]12 [BETULINIC ACID]	2.2 µM	1.9 µM	2.7 µM	2.7 µM	3.2 µM	1.5 µM
C/C(=N/O)[C@@H]1CC[C@]2(C(=O)O)CC[C@]3(C)[C@H](CC[C@@H]4[C@@]5(C)CC[C@H](O)C(C)(C)[C@@H]5CC[C@]43C)[C@@H]12	> 50 µM	> 50 µM	> 50 µM	> 50 µM	> 50 µM	> 50 µM
CC(C)[C@@H]1CC[C@]2(C(=O)O)CC[C@]3(C)C(CCC4[C@@]5(C)CC[C@H](O)C(C)(C)C5CC[C@]43C)C12 (stereo not given in full) [DIHYDROBETULINIC ACID]	> 2 µM	> 2.2 µM				
C=C(CO)[C@@H]1CC[C@]2(C(=O)O)CC[C@]3(C)[C@H](CC[C@@H]4[C@@]5(C)CC[C@H](O)C(C)(C)[C@@H]5CC[C@]43C)[C@@H]12	> 9 µM	> 8.4 µM	> 9.8 µM	> 16.2 µM	> 9.3 µM	> 50 µM
C=C(CNO)[C@@H]1CC[C@]2(C(=O)O)CC[C@]3(C)[C@H](CC[C@@H]4[C@@]5(C)CC[C@H](O)C(C)(C)[C@@H]5CC[C@]43C)[C@@H]12	> 50 µM	> 50 µM				
CO/N=C1\CC[C@]2(C)[C@H]3CC[C@@H]4[C@H]5[C@H](C(C)C)CC[C@]5(C(=O)O)CC[C@@]4(C)[C@]3(C)CC[C@H]2C1(C)C	> 21.2 µM	> 16.4 µM				
C=C(COC)[C@@H]1CC[C@]2(C(=O)O)CC[C@]3(C)[C@H](CC[C@@H]4[C@@]5(C)CC[C@H](O)C(C)(C)[C@@H]5CC[C@]43C)[C@@H]12	> 10.1 µM	> 9.4 µM	> 8.6 µM	> 9 µM	> 50 µM	> 12.7 µM
CC(=O)[C@@H]1CC[C@]2(C(=O)O)CC[C@]3(C)[C@H](CC[C@@H]4[C@@]5(C)CC[C@H](O)C(C)(C)[C@@H]5CC[C@]43C)[C@@H]12 [PLATANIC ACID]	> 50 µM	> 50 µM	> 50 µM	> 50 µM	> 50 µM	> 50 µM
